Assay results published in patent US8338423B2, “Compositions for the treatment of hyperphenylalaninemia” (Universidad de Zaragoza, priority 2007, dated 2012).

What was measured:
[1] = test system: PAH protein expressed in A293 cells; experiment: Immunoreactive PAH protein (Western blot) in transfected A293 cells; assay type: cell-based, human; settings: 40 μM compound, 24 h (FIG. 4B)
Protocol: (§1) Human embryonic kidney cells (A293; purchased from Invitrogen) were grown in Dulbecco's Modified Eagle's Medium (DMEM) containing 4.5 g/l glucose, 10% (v/v) fetal calf serum, 2 mM L-glutamine, 100 i.u./ml penicillin, 100 μg/ml streptomycin and 0.25 mg/ml G-418. A293 cells were transiently transfected with 1 μg of pcDNA3-PAH expression vector (wt or mutant PAH constructs), using the lipofectamine system (Gibco, Invitrogen) as described by the manufacturer. Pharmacological chaperones were added after 5 h of transfection (final concentration 40 μM ligand in DMSO 1%), incubated for 24 h and cells were then harvested and stored at −80° C. […]
(§2) Western blot analyses were performed after SDS-PAGE (10% acrylamide) using as primary antibody a monoclonal mouse ant-human PAH (Chemicon, Australia) and as secondary antibody a goat anti-mouse HRP conjugate (Bio-Rad, US). Detection was performed using a chemiluminiscence method (ECL; Amersham Biosciences) and quantified an a Fluor-S™ Multilmager (Bio-Rad, US) using Quantify one v. […]
(§3) After transfection of A293 cells with constructs carrying wt-PAH and PKU mutants cDNA, the cells were incubated for 24 h in the presence or absence of 40 μM of hit compounds 11 and 13. Cell were harvested and immunoreactive PAH protein and PAH activity were measured in soluble cell extracts. […]

[2] = Solubility in dosing stocks and final solutions; assay type: physicochemical; settings: 50 mg/ml in 100% DMSO stock and 5 mg/ml in 10% DMSO and 10% glucose
Protocol: Solutions of Compounds 11 and Compound 13 were prepared at concentrations of 5 mg/ml (14 mM) in 10% DMSO and 10% glucose. For that, stocks of 50 mg/ml (140 mM) of each compound in 100% DMSO were diluted 1:10 with a 10% glucose solution. Both the stocks and the final solutions of Compounds 11 and 13 are in fact suspensions since the compound is not soluble al these conditions.

Pah-mRNA = Pah-mRNA expression in mouse liver by quantitative real-time PCR; assay type: in vivo; settings: treated mice compared to controls, 10 days oral
Protocol: Animal experiments were performed by Beat Töny (University of Zurich Children's Hospital). 25 μl/day of 10% DMSO (Group 1, control) or the solutions of Compound 11 (Group 2) or Compound 13 (Group […]) were administered orally for 10 days to young adult C57BI/6 mice (all females) exactly 12 weeks old and with weight between 19 to 23 g were in each group, i.e. in Group 2 and 3 animals were given about 5.9 mg/kg/day. Five animals were treated in each group, and no weight change was experienced upon treatment, i.e. <5% change between start and end. Animals were sacrificed at day 10 of treatment, and their livers were sectioned in two frozen immediately in liquid nitrogen, then the frozen half-livers were sent to the Department of Biomedicine, University of Bergen in dry ice. […]
The concentration of soluble protein was about 35 mg/ml of liver extract, similar in each group. The hepatic PAH response to oral supplementation of DMSO and of Compounds 11, 13 in 10% DMSO was analyzed b determining: • i) PAH activity, as described, after removal of free amino acids and contaminants of low molecular weight by using Zebra™ Desalt Spin columns(Pierce). • ii) Pah-mRNA expression by quantitative real-time PCR analysis, performed as reported

[3] = test system: wt-PAH and I65T and R68S mutants expressed in A293 cells; experiment: PAH activity in extracts of transiently transfected A293 cells; assay type: cell-based, human; settings: 40 μM compound, 24 h, vs DMSO 1% controls (FIG. 4A)
Protocol: as §1, §2, §3

wt-PAH = target: T1, wt-PAH (Homo sapiens, UniProt P00439); experiment: Quenching of PAH Trp-emission fluorescence; assay type: binding; settings: apparent affinity, data not shown; read-out: ligand concentration inducing a 50% decrease in Trp-fluorescence
T1 construct: made in house; host or cells: E. coli
T1 sequence (P00439 1-452): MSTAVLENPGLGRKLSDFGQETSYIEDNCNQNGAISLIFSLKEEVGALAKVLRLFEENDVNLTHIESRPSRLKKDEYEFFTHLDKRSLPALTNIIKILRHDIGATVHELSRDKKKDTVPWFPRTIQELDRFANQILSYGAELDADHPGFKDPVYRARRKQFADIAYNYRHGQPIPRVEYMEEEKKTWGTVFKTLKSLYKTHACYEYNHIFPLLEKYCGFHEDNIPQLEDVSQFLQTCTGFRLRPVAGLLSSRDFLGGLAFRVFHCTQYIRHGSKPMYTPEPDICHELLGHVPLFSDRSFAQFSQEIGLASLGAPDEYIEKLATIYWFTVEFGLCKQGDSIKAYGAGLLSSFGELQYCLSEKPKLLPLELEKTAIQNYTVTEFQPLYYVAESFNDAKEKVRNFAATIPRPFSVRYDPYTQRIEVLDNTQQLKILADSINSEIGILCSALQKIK
Protocol: As expected, the stabilizing effect was concentration dependent for all four of them, being significant at 25 μM for compounds 11 and 13 (FIG. 2). […] The apparent affinities of wt-PAH for these four ligands were further studied by monitoring quenching effects of these ligands on PAH Trp-emission fluorescence (not shown). Ligands 11 and 13 induced significant fluorescence quenching, inducing a 50% decrease in Trp-fluorescence at ˜30 and ˜3 μM for ligands 11 and 13, respectively.

| SMILES | PAH immunoreactive protein [1] | solubility [2] | Pah-mRNA expression (Pah-mRNA) | PAH activity enhancement [3] | EC50 (wt-PAH) |
| --- | --- | --- | --- | --- | --- |
| Nc1c(-c2ccc3ccccc3n2)c2ccc([N+](=O)[O-])cc2c(=O)n1Cc1ccccc1 [Compound 11, 3-amino-2-benzyl-7-nitro-4-(2-quinolyl)-1,2-dihydroisoquinolin-1-one] | increase in PAH immunoreactive protein was observed | not soluble | No change | 60-100% | ~30 µM |
| Cc1ccnc(-n2c(=S)[nH]c3sc(C)c(C)c3c2=O)c1 [Compound 13, 5,6-dimethyl-3-(4-methyl-2-pyridinyl)-2-thioxo-2,3 dihydrothieno[2,3-d]pyrimidin-4(1H)-one] | – | not soluble | – | 40-50% | ~3 µM |
